Consider 87 molecules from a melting point compilation (Tetko et al.; mined from patent text by program, amines drawn as free bases though some values may be those of a salt).

Structures are written as SMILES. Some results are limits rather than exact numbers.

As to `COc1ccc(-c2cc3ccc(C#N)cc3o2)cc1`, the melting point fell in the range of 141 to 142 °C.

The molecule `O=C(Nc1ccc(F)cc1F)Nc1cnc2cnccc2c1-c1ccccc1Cl` had a melting point of 213 to 216 °C.

Regarding `CC(C)(C)Nc1c(Nc2ccc3cn[nH]c3c2)c(=O)c1=O`, the melting point was 183 to 185 °C.

As to `CC(C)(C)C(=O)Nc1ccncc1-c1n[nH]c2ccccc12`, the melting point was in the range of 232 to 233 °C.

The molecule `CCOC(=O)c1cn(C)c2cnc3cc(N4CCCC4)c(F)cc3c2c1=O` had a melting point of 270 °C.

With `COc1cc(C(CCN(C)C)C(N)=O)cc(OC)c1OC` (configuration not stated), the melting point is 110 to 112 °C.

In the case of `CN(C)c1ccc(C(=O)OC2=C([C@H]3CC[C@H](c4ccc(Cl)cc4)CC3)C(=O)c3ccccc3C2=O)cc1`, the melting point is 117 to 121 °C.

The molecule `CN(C)CCCOc1cnc(-c2cccc(CO)c2)nc1` yielded a melting point of 95 to 97 °C.

For `CC(C)(C)OC(=O)c1cc(-c2cccc(F)c2)c(=O)n2c1-c1sccc1CC2`, the melting point fell in the range of 135 to 137 °C.

Molecule `O=C(Cc1ccc(Cl)cc1C(=O)O)Nc1cccc(/C=C/c2nc(C3CCC3)cs2)c1` had a melting point of 223 to 225 °C.

As for `COc1cc(C(=O)CN2CCN(c3ccncc3)CC2)ccc1OCC(=O)O`, the melting point was in the range of 218 to 224 °C.

As to `COCCN(C)c1cc2ncc(C#N)c(C)c2cc1OC`, the melting point lay in the range of 90 to 96 °C.

Consider `Nc1nn(-c2ccccc2)cc1CO`, for which the melting point lay in the range of 127 to 128 °C.

Molecule `O=c1[nH]c2cc(Cl)ccc2c(O)c1-n1cccn1` came in with a melting point of 310 °C.

Molecule `Cc1nc(C=O)c2n1-c1ccc(Cl)cc1C(c1ccccc1F)=NC2` gave a melting point of 190 to 192 °C.

In turn, `N#Cc1cnn(-c2c(Cl)cc(C(F)(F)F)c(Cl)c2Cl)c1N` yielded a melting point of 186 to 187 °C.

`COc1ccc(-c2ccccc2C(SCC(=O)c2ccccc2)C(OC(C)=O)C(N)=O)cc1` (configuration not stated): the melting point fell in the range of 122 to 123 °C.

As for `CC(=O)OCC(C)(C)C(Cl)CC(Cl)(Cl)Cl` (configuration not stated), the melting point was 56 to 58 °C.

On to `COc1cc(OC)c(-c2cccs2)cc1/C=C/C(=O)c1ccc(S(=O)(=O)NCC(=O)O)cc1`, for which the melting point lay in the range of 100 to 101 °C.

For the molecule `Cc1cc(C2(c3ccc(OC(F)F)cc3)N=C(N)N(C)C2=O)ccc1F` (configuration not stated), the melting point came to 70 °C.

`COc1cccc(N2CCN(CCn3c(=O)[nH]c4cscc4c3=O)CC2)c1`: the melting point was 184 to 186 °C.

For the molecule `O=C(Nc1ccc(Cl)nc1)N1CC2(c3ccc(Cl)cc3)COc3cc(Cl)ccc3C2=N1` (configuration not stated), the melting point was above 250 °C.

In turn, `CC(C)(CO)NS(=O)(=O)c1cccc(NC(=O)c2cnn3c(C(F)(F)F)cc(-c4ccc(C(F)(F)F)c(Cl)c4)nc23)c1` displayed a melting point of 251 °C.

The molecule `NC1=CC(=O)C(N)=C(CCCCCC2=C(N)C(=O)C=C(N)C2=O)C1=O` showed a melting point above 250 °C.

In turn, `CSc1nccc(-c2ssc(=S)c2C)n1` displayed a melting point of 170 to 172 °C.

Regarding `CCCCCCCCCCCCCCOc1cc(OCCCOc2ccc(O)cc2)cc(C(=O)O)c1`, the melting point is 91 to 93 °C.

In turn, `COC(=O)c1ccccc1NC(=O)OC1CC2C(=O)NC3(C(=O)NS(=O)(=O)C4CC4)CC3C=CCOCCCC(NC(=O)OC(C)(C)C)C(=O)N2C1` (configuration not stated) registered a melting point of 147 to 149 °C.

The molecule `O=c1c2ccccc2c2cnn(-c3ccccc3)c2n1CCCl` gave a melting point of 157 to 160 °C.

As to `CCN1c2ncc(CCc3ccc(N(C)S(C)(=O)=O)cc3)cc2C(=O)N(C)c2ccc(Cl)nc21`, the melting point lay within 196 to 198 °C.

For `CSC(C)(C(=O)O)c1ccc(N2C(=O)c3ccccc3C2=O)cc1` (configuration not stated), the melting point was in the range of 202 to 204 °C.

In turn, `CN1CCN(c2ccc3[nH]c(=O)c(-c4csc(-c5ccncc5)n4)c(N)c3c2)CC1` showed a melting point above 220 °C.

Molecule `O=C(O)c1cccn2cc(-c3ccccc3)nc12` had a melting point of 226 °C.

Regarding `CCCOC(=O)C(=O)Nc1ccccn1`, the melting point lay in the range of 56 to 59 °C.

In turn, `CC(C)c1c(C=C(Cl)Cl)c(-c2ccc(F)cc2)n2c1CCCC2` had a melting point of 97 to 98 °C.

`COc1nc(C)c(C)nc1NC(=S)N1CCN(c2cccc(Br)c2)CC1`: the melting point lay in the range of 136 to 138 °C.

The molecule `CN(C1c2cc(OCc3ccccc3)ccc2OC(C)(C)C1O)S(C)(=O)=O` (configuration not stated) returned a melting point of 162 to 164 °C.

`Cc1cccc(C)c1C(=O)N1C(=O)CN(c2ccccc2)C1=O` came in with a melting point of 135 to 137 °C.

As to `CCc1nnc(-c2ccc(OC)cc2)n1-c1ccc([N+](=O)[O-])cc1`, the melting point was determined as 178 °C.

Turning to `CC(=O)SC(C(=O)c1ccccc1)C(C)C(=O)N1C(c2cccc(C(F)(F)F)c2)SC[C@H]1C(=O)O` (some centres not stated), the melting point fell in the range of 152 to 154 °C.

Turning to `CCn1c(=O)c2[nH]c(/C=C/c3ccc(OC)c(C)c3C)nc2n(CC)c1=O`, the melting point was above 280 °C.

For `Cc1cc(Nc2cc(-c3c(C)cccc3C)nc(Sc3ccc4ccccc4c3)n2)[nH]n1`, the melting point lay within 148 to 152 °C.

`Cc1cc(Oc2c(Cl)cc(C(F)(F)F)cc2[N+](=O)[O-])nn1C(=O)OC(C)(C)C`: the melting point was in the range of 119 to 121 °C.

Molecule `O=c1cnc2c([nH]1)-c1ccccc1C2=NO` yielded a melting point above 300 °C.

The molecule `COC(=O)Cc1c(C(=O)OC)ccn1CCBr` showed a melting point of 129 to 130 °C.

`O=Cc1ccc(-c2ccc(C=O)s2)s1` displayed a melting point of 213 to 214 °C.

For `COc1cc(F)ccc1C(=O)NC(C)c1nc(-c2ccncn2)cc(=O)n1C` (racemic), the melting point fell in the range of 201 to 203 °C.

For the molecule `CC(C)(C)Nc1c(Nc2cnc3ccccc3c2)c(=O)c1=O`, the melting point is 257 to 260 °C.

`O=C(Nc1ccc(-n2nc(C(F)(F)F)cc2-c2cccs2)cc1)c1ccncc1F` registered a melting point of 153 to 155 °C.

`Cc1ccc2c(NCc3ccc(NC(=O)C4CCN(Cc5ccccc5)CC4)cc3)nc(N3CCCCCC3)nc2c1` showed a melting point of 66 °C.

Consider `CCCC(=O)NCCCC1c2ccccc2C=Cc2ccccc21`, for which the melting point fell in the range of 76 to 80 °C.

The molecule `CCCCCNc1nc2ccccc2n1C1CCN(C2(c3ccccc3)CCCCCC2)CC1` had a melting point of 156 to 159 °C.

The molecule `Nc1cn(C2OC(CO)C(O)C2O)nn1` (configuration not stated) displayed a melting point of 102 to 104 °C.

Molecule `CC(C)(C)[C@@H](CO)NC(=O)[C@@H](CC(=O)O)n1ccc(-c2ccc(-c3ccncc3)cc2)c1` came in with a melting point of 192 to 194 °C.

As to `CC(=O)Nc1cc2c(cc1[N+](=O)[O-])[C@@H](O)[C@H](Br)C(C)(C)O2` (relative stereo), the melting point was 205 to 206 °C.

In turn, `Cc1ccc(S(=O)(=O)NCC(CC(=O)Nc2ccc(C(=O)O)cc2)c2ccc(Cl)cc2)cc1` (configuration not stated) had a melting point of 250 to 252 °C.

Regarding `CCN(CC)C(=O)C1=C(C(=O)Nc2ccc(Cl)cc2F)CCCC1`, the melting point was in the range of 105 to 106 °C.

With `COc1ccc(C(=O)Nc2ccc(F)c(F)c2)cc1NC(=S)Nc1cc(Cl)cc(Cl)c1`, the melting point is 180 to 183 °C.

In the case of `CN(C)C(=O)CC1(C)OCCc2c1[nH]c1ccccc21` (configuration not stated), the melting point fell in the range of 149 to 151 °C.

With `COc1cc(C=C2CC(=O)OC2=O)cc(OC)c1OC`, the melting point is 184 to 187 °C.

Turning to `CCN(C(=O)OC(C)(C)C)C1CC=C(c2c[nH]c3cc(NC(=N)c4cccs4)ccc23)CC1` (configuration not stated), the melting point is 110 to 112 °C.

`CCCc1nc2c(N)nc3ccccc3c2n1CC(C)(C)CC(C)=O` gave a melting point of 178 to 180 °C.

Molecule `CCCCc1nc(SC)c(C(=O)O)n1Cc1ccc(-c2ccccc2-c2nnn[nH]2)cc1` had a melting point of 180 °C.

In the case of `O=C(O)C1CCN2c3ccccc3Cc3ccccc3C2C1` (configuration not stated), the melting point is 207 to 209 °C.

Molecule `CCN(CC)c1nc2cc(C)nn2c2ccncc12` registered a melting point of 118 °C.

`CCCCOc1ccc(OCc2ccccc2)c(C(=O)O)c1` gave a melting point of 79 to 82 °C.

Take `CCOC(=O)c1cn(C)c2cc(F)ccc2c1=O`: the melting point was in the range of 164 to 166 °C.

For `COc1ccc(Cl)cc1NC(=O)[C@H]1[C@H](c2ccc(S(N)(=O)=O)cc2)C12CCCC2` (relative stereo), the melting point lay within 210 to 212 °C.

`CC(C)(C)OC(=O)N1C[C@@H]2CC1CN2c1cncc(Br)c1`: the melting point was 149 °C.

In the case of `CCOC(=O)Cc1cnn(C)c1O`, the melting point was in the range of 104 to 105 °C.

In the case of `CN(C)c1ccc(NC(=O)N(C[C@@H]2CCCC[C@H]2CN(C(=O)Nc2ccc(N(C)C)cc2)C2CCCCC2)C2CCCCC2)cc1` (relative stereo), the melting point lay in the range of 108 to 114 °C.

For the molecule `Cc1ccc(-c2ccc(C(=O)Nc3ccc4cc(CN5CCCCCC5)cnc4c3)cc2)cc1`, the melting point is 209 °C.

The molecule `COCCOc1cc(OC)c(C(CC(=O)Nc2cc(C(N)=O)ccc2C(C)(C)C)CC(C)C)cc1Cl` (configuration not stated) showed a melting point of 178 to 179 °C.

As for `CN(Cc1ccc(F)cc1)C1CCN(c2ccc(Cl)cc2)CC1`, the melting point was in the range of 72 to 73 °C.

`COc1cc(CNC(=O)c2nc3sccc3c(=O)[nH]2)ccc1Br`: the melting point fell in the range of 196 to 198 °C.

As for `CCCCCc1c(OCc2ccccc2)ccc(C(C)=O)c1O`, the melting point was 61 to 62 °C.

`CCOn1nnnc1SC[PH](=O)O` gave a melting point of 120 to 122 °C.

Molecule `COC(=O)C(=O)Nc1c(-c2ccccc2)c(=O)[nH]c2cc(Cl)ccc12` came in with a melting point of 240 °C.

In the case of `CN(CCN(C)c1nc2ccccc2n1Cc1ccc(F)cc1)C(=O)OC(C)(C)C`, the melting point lay in the range of 182 to 185 °C.

For `COc1ccc(CNc2cc(F)cc(C#N)c2)cc1`, the melting point is 93 to 94 °C.

As for `CCCOC(=O)c1cc(-c2ccc(Cl)cc2)cnc1C`, the melting point is 54 to 57 °C.

In turn, `Cn1c(CCCO)nc2ccccc21` gave a melting point of 107 °C.

Molecule `NC(=O)c1cnn2c1NCC=C2c1ccccc1` came in with a melting point of 149 to 152 °C.

The molecule `CNC(=NC#N)NCCCCSc1nccc(NC(N)=NCC(F)(F)F)n1` returned a melting point of 179 to 180 °C.

`CCOC(=O)c1nc(OC)cc(OC)n1` registered a melting point of 54 to 55 °C.

In turn, `CCCCCc1sc(C(=O)OCC)nc1-c1ccccc1` came in with a melting point of 51 to 52 °C.

Take `CCC12CCC3C4CCC(=O)C=C4CC(C)C3C1CCC2O` (configuration not stated): the melting point fell in the range of 152 to 154 °C.

`Cc1cccc(CNC(=O)c2nc3scc(COCc4ccc(C(=O)O)cc4)c3c(=O)[nH]2)c1` yielded a melting point of 237 to 239 °C.

In general, melting point refers to the temperature of the solid-liquid transition.
